From publication PMC7395048 (Archives of Toxicology, 2020)
Marks after values point to notes of the source that are not given here.

Tests used:
[1] = cited from earlier work
[2] = RED assay, unbound fraction in in vitro hiPSC-CM MEA assay medium; conditions: in vitro hiPSC-CM MEA assay medium (serum-free)
[3] = In vitro incubations with pooled human intestinal microsomes
[4] = test system: QTc interval in the human ECG; assay: PBK modeling-based reverse dosimetry and BMD analysis of predicted QTc dose-response; conditions: 70 kg
[5] = ref Eap et al. [1990]; Olsen [1973]; Romach et al. [1981]; Wilkins et al. [1997]; cited from earlier work

For CCC(=O)C(CC(C)N(C)C)(c1ccccc1)c1ccccc1 (centres unmarked) [methadone], the pKa ([1]; ref Gerber et al. ([2001])) is given as 9.20^b, the LogP ([1]; ref Ke et al. ([2014])) is given as 3.93^a and the fraction unbound at 5 h, 150 µM [2] is given as 0.79 ± 0.041. For the same compound, the “formation of EDDP” value ([3]; 50 µM methadone, up to 120 min, up to 2 mg/ml protein) was “negligible formation of EDDP”, the EMDP formation ([3]; methadone as substrate) was “no EMDP formation was detected” and the BMDL10 ([4]; fu,p 0.034, model averaging) was 109 mg/day. The BMDU10 ([4]; fu,p 0.034, model averaging) was 509 mg/day, the BMDL10 ([4]; fu,p 0.055, model averaging) was 66.7 mg/day and the BMDU10 ([4]; fu,p 0.055, model averaging) was 316 mg/day. It also gave a BMDL10 ([4]; fu,p 0.15, model averaging) of 24.2 mg/day, a BMDU10 ([4]; fu,p 0.15, model averaging) of 117 mg/day and a BMDL10 ([4]; fu,p 0.22, model averaging) of 16.5 mg/day. For the same compound, the BMDU10 ([4]; fu,p 0.22, model averaging) was 79.5 mg/day and the “fu,p, extreme value (low)” value [5] was 0.034.
